Test results reported in patent US20140056898A1, “COMBINATION THERAPIES COMPRISING ANTI-ERBB3 AGENTS” (priority 2011, published 2014).
pIC50: −log10 of the molar value. “Also recorded” adds a separate entry of the source. One block for each molecule: values may come before it.

Experiments:
[1] = test system: BT474-M3 cells; experiment: Spheroid in vitro tumor model assay, estrogen-stimulated; type: cell-based; details: estrogen-stimulated BT474-M3 spheroids, dose range, six days
Source text: Cells are continued to culture for six days.
Multicellular spheroids are used to simulate the growth and microenvironmental conditions of tumors in vitro.

[2] = test system: BT474-M3 cells; experiment: Spheroid in vitro tumor model assay, heregulin-stimulated; type: cell-based; details: heregulin-stimulated BT474-M3 spheroids, dose range
Experimental: (§3) BT474-M3 wild type cells (2000 cells/well) are plated in Ultra Low Cluster 96-well plate (Costar). After overnight incubation, indicated treatments are introduced to the plate. Cells are continued to culture for six days. Spheroids are then examined by Nikon microscope and analyzed by MetaMorph Image Analysis Software (Molecular Devices). The spheroid size from cells cultured in medium containing 10% FBS is set as control.
(§4) The percent of spheroid growth inhibition (normalized to untreated, stimulated control) was determined for 1 μM doses of inhibitor treatment.

[3] = test system: BT474-M3 cells; experiment: Spheroid in vitro tumor model assay, dual ligand (estrogen and heregulin)-stimulated; type: cell-based; details: estrogen and heregulin (dual ligand)-stimulated BT474-M3 spheroids, dose range
Experimental: as §3, §4

[4] = test system: BT474-M3-Aro cells; experiment: Aromatase-overexpressing BT474-M3 cell proliferation assay (WST-1); type: cell-based; details: androstenedione (200 nM) and heregulin (2 nM), three days; ratio 10:20:1 MM-111 to letrozole to lapatinib
Experimental: BT474-M3 cells were transfected with PS100010 vector containing human aromatase (gene accession No: NM_000103.2). Cells with stable expression of aromatase (BT474-M3-Aro) were obtained after selection with 400 μg/ml geneticin. For cell proliferation assay, BT474-M3-Aro cells (5000 cells/well) were plated in phenol red-free RPMI-1640 medium containing 5% charcoal-stripped FBS into 96-well plate. After overnight incubation, indicated treatments were introduced in the presence of androstenedione (A-4; 200 nM) and heregulin (HRG; 2 nM). […] Cell viability in the presence of 5% charcoal-stripped FBS was set as control (100%).
Androstenedione is a steroid hormone that is converted to estrogen by aromatase.

[5] = test system: BT474-M3 breast cancer xenograft; experiment: BT474-M3 breast cancer xenograft efficacy study, MM-111 and lapatinib; type: in vivo, mice; details: from day 40 to day 7; MM-111 weekly, lapatinib daily at optimal efficacious dose
Experimental: Tumor xenografts are established by subcutaneous injection of BT474-M3 cells into the flank of 5-6 weeks old female athymic nude mice (nu/nu; Charles River Labs, Wilmington, Mass.). Mice receive a subcutaneous 60 day, slow-release estrogen implant in the opposite flank (0.72 mg pellet; Innovation Research of America, Sarasota, Fla.) 24 hours prior to the injection of cells.
The percent change in tumor volume from day 40 to day 7 (inoculation) was calculated for each group (FIG. 6b).

[6] = test system: BT474-M3 cells; experiment: Cell proliferation assay (CellTiter-Glo); type: cell-based; details: 24 hours
Experimental: Cells (8,000/well) are seeded into 96-well plates and incubated overnight. Inhibitor is added at doses indicated and cells are treated for 24 hours. For experiments with ligand stimulation, cells are serum-starved overnight prior to addition of inhibitor and 2 nM heregulin 1-[…] (R&D Systems, Minneapolis, Minn.) is added 1 hour post-inhibitor treatment in media containing 5% FBS. Numbers of viable cells are measured as an indicator of cell proliferation using the CellTiter-Glo® Luminescent Cell Viability Assay (Promega, Madison, Wis.).

[7] = test system: BT474-M3 cells; experiment: Apoptosis assay (Annexin V / PI, FACS) in spheroids; type: cell-based; details: MM-111 100 nM, lapatinib 33 nM; for Percent cell population: Early apoptosis: Annexin V positive, PI negative; for Percent cell population: Dead cells: PI positive, Annexin V negative
Experimental: After overnight incubation, spheroids are treated with inhibitor at concentrations indicated for 72 hours. Spheroids are then trypsinized and combined with floating cells. Cells are washed twice with cold PBS and suspended in binding buffer (0.01 M HEPES, pH 7.4; 0.14 M NaCl; 2.5 mM CaCl2). Cells are then stained with FITC-conjugated Annexin V and PI. Apoptotic cells are quantified on a FACSCalibur™ FACS machine.
Cells were then stained with Annexin V and propidium iodide (PI) and quantitated using FACS (FIG. 11, Table 2). Cell populations staining positive with Annexin V and PI were quantified as late apoptotic, cell populations staining positive with Annexin V but not PI were quantified as early apoptotic, cell populations staining positive for PI but not Annexin V were quantified as dead cells and populations of cells not stained with either Annexin V or PI were considered alive and not apoptotic (Table 2).

[8] = test system: ErbB3 phosphorylation (pErbB3); experiment: Cell signaling assay, pErbB3 ELISA in heregulin-stimulated BT474-M3 cells; type: cell-based
Experimental: (§1) Cell lysates are probed for phospho-ErbB3 (pErbB3), and phospho-AKT (pAKT) by ELISA as described previously (Schoeberl et al, 2009). Inhibitor IC50 values are calculated by fitting dose-response data to a 4-parameter sigmoidal curve (GraphPad Prism®, GraphPad Software, Inc., La Jolla, Calif.).
The amount of pErbB3 was measured by ELISA using the methods described above or minor variations thereof. Model-generated dose-response curves overlay the experimental data (FIG. 7a). […] Untreated and heregulin-stimulated cells were probed for pErbB3 and pAKT and the IC50 was calculated (FIG. 7b).
(§2) CRL-1504™), cells were incubated with serial dilutions of either inhibitor for 15 minutes, 1 hour, 4 hours, and 24 hours followed by stimulation with 5 nM heregulin for 10 min. Amounts of pAKT and pErbB3 were measured by ELISA essentially as described.

[9] = test system: ErbB3 phosphorylation (pErbB3); experiment: Cell signaling assay, pErbB3 ELISA in heregulin-stimulated ZR75-30 cells; type: cell-based; details: 5 nM heregulin for 10 min, read-out: IC50, reduction of pErbB3 levels
Experimental: as §1, §2

[10] = test system: AKT phosphorylation (pAKT); experiment: Cell signaling assay, pAKT ELISA in heregulin-stimulated BT474-M3 cells; type: cell-based; details: 5 nM heregulin for 10 min, read-out: IC50, reduction of pAKT levels
Experimental: as §1, §2

[11] = test system: AKT phosphorylation (pAKT); experiment: Cell signaling assay, pAKT ELISA in heregulin-stimulated ZR75-30 cells; type: cell-based; details: 5 nM heregulin for 10 min, read-out: IC50, reduction of pAKT levels
Experimental: as §1, §2

[12] = test system: ErbB2 and ErbB3; experiment: Affinity of MM-111 antigen-binding sites

Molecule: C[C@]12CC[C@@H]3c4ccc(O)cc4C[C@@H](CCCCCCCCC[S+]([O-])CCCC(F)(F)C(F)(F)F)[C@H]3[C@@H]1CC[C@@H]2O (some centres unmarked) [fulvestrant]
inhibition of spheroid growth (in words) [1]: showed inhibitory effects on spheroid growth
inhibition of spheroid growth (in words) [2]: did not inhibit heregulin stimulated spheroid growth
inhibition of spheroid growth (in words) [3]: inhibited spheroid growth

Molecule: CS(=O)(=O)CCNCc1ccc(-c2ccc3ncnc(Nc4ccc(OCc5cccc(F)c5)c(Cl)c4)c3c2)o1 [lapatinib, reference compound]
inhibition of cell growth (in words) [4]: did not result in growth inhibition except at high concentrations
percent change in tumor volume [5]: −11%
inhibition of cell proliferation (viable cells) ([6]; BT474-M3 cells in serum plus 2 nM heregulin): about 23%
inhibition of cell proliferation (viable cells) ([6]; unstimulated BT474-M3 cells in serum): ~50%
Percent cell population: Live cells ([7]; 72 hours): 67.9%
Percent cell population: Early apoptosis ([7]; 72 hours): 16.8%
Percent cell population: Dead cells ([7]; 72 hours): 0.73%
total apoptotic cells [7]: about 31%
inhibition of heregulin-activated signaling (pErbB3, pAKT; in words) ([8]; BT474-M3 cells, 5 nM heregulin 10 min versus unstimulated, 1-hour incubation): not an effective inhibitor of heregulin-activated signaling

pIC50 [9]: 8.30
pIC50 [10]: 8.00
pIC50 [11]: 8.40
affinity of ErbB2 antigen-binding site relative to ErbB3 antigen-binding site [12]: about 30 times
pIC50 ([8]; BT474-M3 cells, 5 nM heregulin for 10 min, read-out: IC50, reduction of pErbB3 levels): 8.52
Molecule: MM-111: bispecific anti-ErbB2/anti-ErbB3 antibody, scFv HSA conjugate, amino acid sequence SEQ ID NO:1
inhibition of spheroid growth (in words) [1]: showed inhibitory effects on spheroid growth
inhibition of spheroid growth (in words) [2]: inhibited heregulin-induced spheroid growth
inhibition of cell growth (in words) [4]: inhibited cell proliferation to a similar extent
percent change in tumor volume [5]: 14%
inhibition of spheroid growth (in words) [3]: inhibited spheroid growth; also recorded: greater inhibitory effects than trastuzumab
Percent cell population: Live cells ([7]; 72 hours): 78.9%
Percent cell population: Late apoptosis ([7]; 72 hours, Annexin V and PI positive): 7.5%
Percent cell population: Early apoptosis ([7]; 72 hours): 12.9%
Percent cell population: Dead cells ([7]; 72 hours): 0.74%
total apoptotic cells [7]: about 20%
ability to inhibit heregulin-induced ErbB3 activation relative to lapatinib ([8]; incubation 15 minutes up to 24 hours): superior to lapatinib by greater than an order of magnitude

Molecule: N#Cc1ccc(C(c2ccc(C#N)cc2)n2cncn2)cc1 [letrozole]
inhibition of cell growth (in words) [4]: did not result in significant inhibition of spheroid cell growth
